Laboratory results reported in ChEMBL document CHEMBL3243927, “5,6,7,8-Tetrahydroquinolines. 5. Antiulcer and antisecretory activity of 5,6,7,8-tetrahydroquinolinethioureas and related heterocycles” (J Med Chem, 1977).
Calls of active or inactive are those of the source. No cut-off for these calls is given here.

Experiments:
Rattus norvegicus [1] = assay: Antiulcer activity in Sprague-Dawley rat assessed as inhibition of cold-restraint stress-induced gastric erosion at 100 mg/kg, po after 3 hrs; format: functional, organism-based; parameters: dose 100 mg/kg; conditions: Stomach
Rattus norvegicus [2] = assay: Antisecretory activity in pylorus-ligated Sprague-Dawley rat assessed as inhibition of gastric juice secretion at 30 mg/kg administered intraduodenally after 4 hrs by potentiographic titration analysis relative to control; format: functional, organism-based; parameters: dose 30 mg/kg
Rattus norvegicus [3] = assay: Antiulcer activity in Sprague-Dawley rat assessed as inhibition of cold-restraint stress-induced gastric erosion at 30 mg/kg, po after 3 hrs; format: functional, organism-based; parameters: dose 30 mg/kg; conditions: Stomach
Rattus norvegicus [4] = assay: Toxicity in po dosed Sprague-Dawley rat assessed as mortality; format: organism-based; conditions: in vivo
Rattus norvegicus [5] = assay: Antisecretory activity in pylorus-ligated Sprague-Dawley rat assessed as inhibition of gastric juice secretion at 10 mg/kg administered intraduodenally after 4 hrs by potentiographic titration analysis; format: functional, organism-based; parameters: dose 10 mg/kg

Row | SMILES | Activity (Rattus norvegicus [1]) | Activity (Rattus norvegicus [2]) | Activity (Rattus norvegicus [3]) | Activity (Rattus norvegicus [4]) | Activity (Rattus norvegicus [5])
1 | CS/C(=N/C#N)NC1CCCc2cc(C)cnc21 (configuration not stated) | inactive |  |  |  | 
2 | Cc1cnc2c(c1)CCCC2NC(=S)NC(=O)c1ccccc1 (configuration not stated) | inactive | inactive |  |  | 
3 | NC(=S)N1CCCCc2cccnc21 | inactive | Active |  |  | 
4 | CNC(=S)N1CCCc2cccnc21 |  | Active | Active |  | 
5 | CNC(=S)N1CCCc2ncccc21 |  | Active | Active |  | 
6 | Cc1cnc2c(c1)C(NC(N)=S)CCC2 (configuration not stated) | inactive |  |  |  | 
7 | NC(=S)N1CCc2cccnc21 |  |  |  | Toxic | Active
8 | Cc1cnc2c(c1)C(NC(=S)Nc1ccccc1)CCC2 (configuration not stated) | inactive | Active |  |  | 
9 | CNC(=S)NC1CCCc2cc(C)cnc21 (configuration not stated) | Active |  |  |  | Active
10 | CN/C(=N/C(N)=O)NC1CCCc2cc(C)cnc21 (configuration not stated) | inactive | inactive |  |  | 
11 | CN/C(=N/C#N)NC1CCCc2cc(C)cnc21 (configuration not stated) | inactive | inactive |  |  | 
12 | CNC(=S)N1CCCCc2cccnc21 | inactive |  |  |  | Active
13 | O=C(NC(=S)N1CCc2cccnc21)c1ccccc1 | inactive | inactive |  |  | 
14 | Cc1cnc2c(c1)CCCC2NC(N)=S (configuration not stated) | Active | Active |  |  | 
15 | CNC(=S)NC(C)C1CCCc2cc(C)cnc21 (configuration not stated) | inactive | inactive |  |  | 
16 | Cc1cnc2c(c1)C(NC(=S)NC(=O)c1ccccc1)CCC2 (configuration not stated) |  | inactive |  | Toxic | 
17 | CNC(=S)N1CCc2ncc(C)cc2C1 | Active | inactive |  |  | 
18 | CNC(=S)N1CCc2cccnc21 |  | Active | Active |  | 
19 | CCCCNC(=S)N1CCc2cccnc21 | inactive | inactive |  |  | 
20 | S=C1NCc2cccnc2N1 | inactive | inactive |  |  | 
21 | CN/C(=N/C(N)=S)NC1CCCc2cc(C)cnc21 (configuration not stated) | Active | inactive |  |  | 
22 | CNC(=S)NC1CCCc2ncc(C)cc21 (configuration not stated) | inactive | inactive |  |  | 
